Common to all, as to type: biochemical
The target of one assay is p110β/p85α (Homo sapiens (Human), UniProt P42338). Put plainly: PI 3-Kinase (human) HTRF assay, p110β/p85α. The conditions noted are these: read-out: PI3K β IC50. Background: TR-FRET usually uses a lanthanide donor and a delayed reading to cut background.
The next assay concerns the target p110γ (Homo sapiens (Human), UniProt P48736). The experiment in a line: PI 3-Kinase (human) HTRF assay, p110γ. The conditions noted are these: read-out: PI3K γ IC50.
The next assay has as its target p110α/p85α (Homo sapiens (Human), UniProt P42336). The experiment in a line: PI 3-Kinase (human) HTRF assay, p110α/p85α. Conditions: read-out: PI3K α IC50.

Read-outs that look alike come from different tables or passages of the source. Where only a bound is given, the exact number is not on record here.

Sequence of p110α/p85α (P42336 whole entry): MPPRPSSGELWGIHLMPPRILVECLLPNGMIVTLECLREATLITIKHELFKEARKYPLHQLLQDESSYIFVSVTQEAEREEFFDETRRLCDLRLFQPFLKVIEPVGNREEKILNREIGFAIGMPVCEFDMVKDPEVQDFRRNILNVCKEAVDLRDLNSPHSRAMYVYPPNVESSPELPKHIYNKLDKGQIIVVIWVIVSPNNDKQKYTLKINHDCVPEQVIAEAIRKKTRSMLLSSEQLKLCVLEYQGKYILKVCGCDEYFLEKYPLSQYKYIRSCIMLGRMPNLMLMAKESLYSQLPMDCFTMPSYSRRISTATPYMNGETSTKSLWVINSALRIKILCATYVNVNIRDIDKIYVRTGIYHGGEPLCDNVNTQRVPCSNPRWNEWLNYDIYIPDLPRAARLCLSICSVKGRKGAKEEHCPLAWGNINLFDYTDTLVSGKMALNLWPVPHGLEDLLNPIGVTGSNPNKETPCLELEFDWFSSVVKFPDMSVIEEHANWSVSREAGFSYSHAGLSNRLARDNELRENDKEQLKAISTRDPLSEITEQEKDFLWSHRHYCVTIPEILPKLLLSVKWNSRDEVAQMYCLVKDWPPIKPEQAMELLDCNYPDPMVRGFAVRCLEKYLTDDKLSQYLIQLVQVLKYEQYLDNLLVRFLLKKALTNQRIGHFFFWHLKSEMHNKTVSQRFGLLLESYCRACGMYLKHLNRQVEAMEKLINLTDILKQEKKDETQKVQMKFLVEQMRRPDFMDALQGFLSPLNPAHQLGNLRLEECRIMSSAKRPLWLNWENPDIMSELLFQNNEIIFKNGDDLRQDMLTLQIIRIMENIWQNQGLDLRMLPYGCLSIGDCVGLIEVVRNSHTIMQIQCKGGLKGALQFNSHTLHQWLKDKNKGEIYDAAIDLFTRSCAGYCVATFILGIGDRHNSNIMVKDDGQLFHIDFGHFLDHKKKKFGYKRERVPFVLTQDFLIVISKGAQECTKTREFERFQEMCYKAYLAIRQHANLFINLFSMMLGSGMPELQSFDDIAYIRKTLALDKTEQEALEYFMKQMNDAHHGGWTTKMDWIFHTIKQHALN
Sequence of p110α/p85α (P27986 whole entry partner): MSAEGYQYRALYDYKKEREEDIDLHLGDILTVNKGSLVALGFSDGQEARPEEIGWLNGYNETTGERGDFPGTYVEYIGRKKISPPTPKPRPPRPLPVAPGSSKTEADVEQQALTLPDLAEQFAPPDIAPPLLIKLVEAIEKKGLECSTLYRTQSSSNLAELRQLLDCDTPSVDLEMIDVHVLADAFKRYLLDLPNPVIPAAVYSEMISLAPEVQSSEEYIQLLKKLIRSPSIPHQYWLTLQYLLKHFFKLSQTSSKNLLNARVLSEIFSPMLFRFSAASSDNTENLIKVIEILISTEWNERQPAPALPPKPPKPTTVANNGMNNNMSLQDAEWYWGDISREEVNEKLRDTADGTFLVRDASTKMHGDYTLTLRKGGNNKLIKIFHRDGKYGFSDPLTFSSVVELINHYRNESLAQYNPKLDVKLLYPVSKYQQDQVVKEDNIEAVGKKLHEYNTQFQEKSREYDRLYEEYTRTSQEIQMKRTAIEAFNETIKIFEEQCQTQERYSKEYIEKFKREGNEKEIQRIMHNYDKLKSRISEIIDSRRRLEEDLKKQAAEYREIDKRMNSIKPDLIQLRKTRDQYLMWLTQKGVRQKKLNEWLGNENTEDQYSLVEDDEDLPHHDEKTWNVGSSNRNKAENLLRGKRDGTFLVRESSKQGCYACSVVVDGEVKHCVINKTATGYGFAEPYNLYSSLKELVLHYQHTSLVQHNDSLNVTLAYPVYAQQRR
Sequence of p110β/p85α (P42338 whole entry): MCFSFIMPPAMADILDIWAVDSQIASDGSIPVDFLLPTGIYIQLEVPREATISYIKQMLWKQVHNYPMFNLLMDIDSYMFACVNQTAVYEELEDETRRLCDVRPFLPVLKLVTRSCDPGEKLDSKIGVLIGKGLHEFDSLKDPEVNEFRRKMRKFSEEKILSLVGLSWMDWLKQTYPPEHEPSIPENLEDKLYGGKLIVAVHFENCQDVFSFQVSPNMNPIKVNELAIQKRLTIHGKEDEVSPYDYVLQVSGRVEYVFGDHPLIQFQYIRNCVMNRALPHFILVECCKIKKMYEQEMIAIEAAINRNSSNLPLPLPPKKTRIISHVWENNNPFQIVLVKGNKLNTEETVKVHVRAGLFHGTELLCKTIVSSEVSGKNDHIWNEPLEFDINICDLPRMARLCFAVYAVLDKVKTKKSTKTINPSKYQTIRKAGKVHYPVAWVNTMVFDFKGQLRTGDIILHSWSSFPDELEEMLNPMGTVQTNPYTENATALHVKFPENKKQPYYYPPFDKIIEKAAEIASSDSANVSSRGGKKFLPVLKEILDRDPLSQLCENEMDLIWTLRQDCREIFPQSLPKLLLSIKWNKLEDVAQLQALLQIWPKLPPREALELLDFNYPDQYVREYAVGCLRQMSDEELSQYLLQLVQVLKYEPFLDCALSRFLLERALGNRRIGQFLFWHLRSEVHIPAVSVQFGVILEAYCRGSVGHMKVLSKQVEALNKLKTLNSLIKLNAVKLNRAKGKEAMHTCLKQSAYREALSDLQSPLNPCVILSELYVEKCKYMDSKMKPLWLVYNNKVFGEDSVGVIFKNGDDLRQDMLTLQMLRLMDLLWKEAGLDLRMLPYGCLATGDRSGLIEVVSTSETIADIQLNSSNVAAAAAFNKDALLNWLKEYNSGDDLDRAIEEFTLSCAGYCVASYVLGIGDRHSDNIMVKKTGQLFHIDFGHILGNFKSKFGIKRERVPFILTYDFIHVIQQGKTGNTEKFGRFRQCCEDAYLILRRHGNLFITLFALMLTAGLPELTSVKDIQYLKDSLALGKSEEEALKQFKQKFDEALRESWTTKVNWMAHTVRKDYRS
Sequence of p110β/p85α (P27986 whole entry partner): as the sequence (P27986 whole entry partner) above
Sequence of p110γ (P48736 whole entry): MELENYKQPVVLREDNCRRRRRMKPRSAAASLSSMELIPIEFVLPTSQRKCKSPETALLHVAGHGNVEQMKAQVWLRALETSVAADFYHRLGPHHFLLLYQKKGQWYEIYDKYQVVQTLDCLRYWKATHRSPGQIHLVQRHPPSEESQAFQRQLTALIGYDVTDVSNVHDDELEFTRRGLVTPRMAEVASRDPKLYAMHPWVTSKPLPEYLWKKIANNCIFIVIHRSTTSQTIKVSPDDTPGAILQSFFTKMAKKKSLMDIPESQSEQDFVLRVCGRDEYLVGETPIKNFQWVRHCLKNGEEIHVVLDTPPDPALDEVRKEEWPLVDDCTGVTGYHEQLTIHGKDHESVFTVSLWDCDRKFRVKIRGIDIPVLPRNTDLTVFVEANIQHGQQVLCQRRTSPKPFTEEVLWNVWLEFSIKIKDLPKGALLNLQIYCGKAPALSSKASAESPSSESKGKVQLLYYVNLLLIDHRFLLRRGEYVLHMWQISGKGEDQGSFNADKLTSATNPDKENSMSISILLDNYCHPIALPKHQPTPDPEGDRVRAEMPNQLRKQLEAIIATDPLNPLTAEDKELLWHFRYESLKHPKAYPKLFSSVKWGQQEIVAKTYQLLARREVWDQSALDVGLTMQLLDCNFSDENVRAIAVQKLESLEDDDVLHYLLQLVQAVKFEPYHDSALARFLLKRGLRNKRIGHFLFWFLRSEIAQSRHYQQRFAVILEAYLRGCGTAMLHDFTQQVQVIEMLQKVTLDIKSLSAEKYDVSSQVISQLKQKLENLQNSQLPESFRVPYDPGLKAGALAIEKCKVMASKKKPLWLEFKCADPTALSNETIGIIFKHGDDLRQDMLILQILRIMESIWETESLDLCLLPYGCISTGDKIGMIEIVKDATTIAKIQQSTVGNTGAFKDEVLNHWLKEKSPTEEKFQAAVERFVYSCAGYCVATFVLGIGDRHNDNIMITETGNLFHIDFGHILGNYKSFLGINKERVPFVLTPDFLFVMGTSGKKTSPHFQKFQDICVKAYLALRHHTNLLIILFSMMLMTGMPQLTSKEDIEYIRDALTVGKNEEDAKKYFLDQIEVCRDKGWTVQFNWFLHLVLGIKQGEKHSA
Experimental for p110α/p85α: (§1) An exemplary system is PI 3-Kinase (human) HTRF™ Assay from Upstate. […] Briefly, the assay is a time resolved FRET assay that indirectly measures PIP3 product formed by the activity of a PI3-K. The kinase reaction is performed in a microtitre plate (e.g., a 384 well microtitre plate). The total reaction volume is approximately 20 ul per well. In the first step, each well receives 2 ul of test compound in 20% dimethylsulphoxide resulting in a 2% DMSO final concentration. Next, approximately 14.5 ul of a kinase/PIP2 mixture (diluted in 1× reaction buffer) is added per well for a final concentration of 0.25-0.3 ug/ml kinase and 10 μM PIP2. The plate is sealed and incubated for 15 minutes at room temperature. To start the reaction, 3.5 ul of ATP (diluted in 1× reaction buffer) is added per well for a final concentration of 10 μM ATP. The plate is sealed and incubated for 1 hour at room temperature. The reaction is stopped by adding 5 ul of Stop Solution per well and then 5 ul of Detection Mix is added per well. The plate is sealed, incubated for 1 hour at room temperature, and then read on an appropriate plate reader. Data is analyzed and IC50s are generated using GraphPad Prism 5. […] For PI3K α, β, δ, and γ, the nM concentration of inhibitor to reach IC50 is provided.
Experimental for p110γ: as §1

What is called IC50 is the concentration at which inhibition is half-maximal. As for `Nc1ncc2cc(-c3ccc4nccc(-c5ccncc5)c4c3)ccc2n1` [compound 9], the half-inhibitory concentration (IC50) was less than 10 µM on p110β/p85α, less than 1 µM on p110γ and less than 1 µM at p110α/p85α.
For `Nc1nc2cc(-c3ccc4ncc(N5CCOCC5)n4n3)ccc2o1` [compound 57], the IC50 was less than 1 µM on p110β/p85α, less than 10 µM at p110γ and less than 1 µM on p110α/p85α.
Consider `CCN1CCC(n2cnc3ccc(-c4ccc5oc(N)nc5c4)cc3c2=O)CC1` [compound 73], for which the figures for the IC50 on p110β/p85α and on p110α/p85α were less than 10 µM and less than 1 µM, respectively.
In the case of `Nc1nc2cc(-c3ccc4ncn(C5CCNCC5)c(=O)c4c3)ccc2o1` [compound 75], the IC50 on p110β/p85α was less than 10 µM; at p110γ, less than 10 µM; on p110α/p85α, less than 0.1 µM.
In the case of `Nc1nc2cc(-c3ccc4ncc(C(=O)N5CCOCC5)n4n3)ccc2o1` [compound 105], the half-maximal inhibitory concentration (IC50) at p110β/p85α was less than 10 µM; at p110γ it was less than 1 µM; on p110α/p85α, less than 1 µM.
As for `Nc1nc2cc(-c3ccc4ncc(C(=O)N5CCNCC5)n4c3)ccc2o1` [compound 111], the half-inhibitory concentration (IC50) was less than 10 µM at p110β/p85α and less than 0.1 µM on p110α/p85α.
As for `CN1CCN(c2cnc3ccc(-c4ccc5nc(N)oc5c4)cc3n2)CC1` [compound 118], the half-maximal inhibitory concentration (IC50) on p110β/p85α was less than 0.1 µM; on p110γ it was less than 10 µM; at p110α/p85α, less than 1 µM.
In the case of `Nc1nc2ccc(-c3ccc4ncc(C(=O)N5CCOCC5)n4c3)cc2o1` [compound 124], the IC50 on p110β/p85α, on p110γ and at p110α/p85α was less than 1 µM each time.
As to `Nc1nc2cc(-c3ccc4ncc(C(=O)N5CCOCC5)n4c3)ccc2s1` [compound 126], the IC50 is less than 10 µM on p110β/p85α, less than 1 µM on p110γ and less than 1 µM on p110α/p85α.
Take `CN1CCN(c2cnc3ccc(-c4ccc5sc(N)nc5c4)cc3n2)CC1` [compound 127]: the IC50 at p110β/p85α was less than 0.1 µM; on p110γ it was less than 10 µM; on p110α/p85α, less than 1 µM.
Take `CN1CCCN(c2cnc3ccc(-c4ccc5oc(N)nc5c4)cc3n2)CC1` [compound 136]: the IC50 was less than 1 µM at p110β/p85α, less than 10 µM at p110γ and less than 1 µM at p110α/p85α.
Regarding `CN1CCCN(C(=O)c2cnc3ccc(-c4ccc5oc(N)nc5c4)cn23)CC1` [compound 140], the concentration for half-maximal inhibition (IC50) on p110β/p85α is less than 10 µM; on p110α/p85α it was less than 1 µM.
As for `CN1CCN(C(=O)c2cnc3ccc(-c4ccc5sc(N)nc5c4)cn23)CC1` [compound 144], the half-maximal inhibitory concentration (IC50) on p110β/p85α is less than 10 µM; on p110α/p85α, less than 1 µM.
On to `CN1CCN(C(=O)c2cnc3ccc(-c4ccc5nc(N)oc5c4)cn23)CC1` [compound 145], for which the IC50 at p110β/p85α is less than 10 µM; on p110γ, less than 10 µM; at p110α/p85α, less than 1 µM.
`CN1CCN(C(=O)c2cnc3ccc(-c4ccc5nc(N)sc5c4)cn23)CC1` [compound 146]: the IC50 at p110β/p85α and at p110α/p85α was less than 10 µM throughout.
Regarding `CC1CN(C(=O)c2cnc3ccc(-c4ccc5oc(N)nc5c4)cn23)CCN1` (stereo not shown) [compound 164], the 50% inhibitory concentration (IC50) on p110β/p85α and at p110α/p85α was less than 1 µM each time.
For `CN(CCN1CCOCC1)c1cnc2ccc(-c3ccc4oc(N)nc4c3)cc2n1` [compound 166], the values for the IC50 on p110β/p85α, at p110γ and on p110α/p85α were less than 10 µM, less than 10 µM and less than 1 µM, respectively.
`Nc1nc2cc(-c3ccc4ncc(-c5ccccn5)nc4c3)ccc2o1` [compound 195]: the results for the IC50 at p110β/p85α, at p110γ and on p110α/p85α were less than 10 µM, less than 0.1 µM and less than 1 µM, respectively.
On the same counts, the results for `Nc1nc2cc(-c3ccc4ncc(C(=O)N5CCCCC5)n4c3)ccc2o1` [compound 196] are less than 10 µM, less than 10 µM and less than 1 µM.
Take `Nc1nc2cc(-c3ccc4ncc(C(=O)N5CCC(N)CC5)n4c3)ccc2o1` [compound 204]: the IC50 on p110β/p85α (in vitro) was less than 1 µM; at p110α/p85α (in vitro), less than 0.1 µM.
Turning to `Nc1nc2cc(-c3ccc4nnc(-c5ccncc5)n4c3)ccc2o1` [compound 229], the IC50 is less than 1 µM on p110β/p85α (in vitro), less than 10 µM on p110γ (in vitro) and less than 1 µM on p110α/p85α (in vitro).
In the case of `CC(=O)Nc1nc2ccc(-c3ccc4nc(N)oc4c3)cc2s1` [compound 242], the IC50 at p110β/p85α (in vitro), at p110γ (in vitro) and at p110α/p85α (in vitro) was less than 0.1 µM throughout.
As to `Nc1nc2ccc(-c3ccc4nc(N)sc4c3)cc2o1` [compound 243], the IC50 is less than 0.1 µM on p110β/p85α (in vitro), less than 0.1 µM on p110γ (in vitro) and less than 1 µM at p110α/p85α (in vitro).
As for `Nc1cn2cc(-c3ccc4oc(N)nc4c3)ccc2n1` [compound 245], the IC50 on p110β/p85α (in vitro) was less than 10 µM; on p110γ (in vitro), less than 1 µM; at p110α/p85α (in vitro), less than 1 µM.
As for `Nc1cn2cc(-c3ccc4nc(N)oc4c3)ccc2n1` [compound 247], the half-inhibitory concentration (IC50) on p110β/p85α (in vitro) and at p110γ (in vitro) was less than 10 µM each time.
Consider `COCCn1cnc2ccc(-c3ccc4oc(N)nc4c3)cc2c1=O` [compound 272], for which the figures for the 50% inhibitory concentration (IC50) at p110β/p85α (in vitro), at p110γ (in vitro) and on p110α/p85α (in vitro) were less than 10 µM, less than 10 µM and less than 1 µM, respectively.

(Values after US11547697B2, “Heterocyclic compounds and uses thereof” (MILLENNIUM PHARMACEUTICALS, INC., priority 2009, dated 2023).)
